Source: PubChem BioAssay AID1259407 (Chemical Carcinogenesis Research Information System (CCRIS), 2018)
Calls of active or inactive are those of the source. The rule behind the calls is not given here.

Test system: CCRIS mutagenicity, Ames/micronucleus/aberration tests
Assay: CCRIS mutagenicity studies

Structure (SMILES): CC(=O)N[C@@H](CC(=O)O)C(=O)O
- mutagenic call (End Point: In vivo micronucleus, Test System: Bone marrow erythrocytes, Species: Mouse, Strain/Sex: Crl:CD1 (ICR)/Male and female, Route: Oral): inactive; negative
- mutagenic call (Test System: Ames Salmonella typhimurium, Strain/Indicator: TA98, Metabolic Activation: None, Method: Standard plate): inactive; negative
- mutagenic call (Test System: Ames Salmonella typhimurium, Strain/Indicator: TA98, Metabolic Activation: Rat, Liver, S-9, Aroclor 1254 (10%), Method: Standard plate): inactive; negative
- mutagenic call (Test System: Ames Salmonella typhimurium, Strain/Indicator: TA100, Metabolic Activation: None, Method: Standard plate): inactive; negative
- mutagenic call (Test System: Ames Salmonella typhimurium, Strain/Indicator: TA100, Metabolic Activation: Rat, Liver, S-9, Aroclor 1254 (10%), Method: Standard plate): inactive; negative
- mutagenic call (Test System: Ames Salmonella typhimurium, Strain/Indicator: TA1535, Metabolic Activation: None, Method: Standard plate): inactive; negative
- mutagenic call (Test System: Ames Salmonella typhimurium, Strain/Indicator: TA1535, Metabolic Activation: Rat, Liver, S-9, Aroclor 1254 (10%), Method: Standard plate): inactive; negative
- mutagenic call (Test System: Ames Salmonella typhimurium, Strain/Indicator: TA1537, Metabolic Activation: None, Method: Standard plate): inactive; negative
- mutagenic call (Test System: Ames Salmonella typhimurium, Strain/Indicator: TA1537, Metabolic Activation: Rat, Liver, S-9, Aroclor 1254 (10%), Method: Standard plate): inactive; negative
- mutagenic call (Test System: E. coli, Strain/Indicator: WP2 uvrA, Metabolic Activation: None, Method: Standard plate): inactive; negative
- mutagenic call (Test System: E. coli, Strain/Indicator: WP2 uvrA, Metabolic Activation: Rat, Liver, S-9, Aroclor 1254 (10%), Method: Standard plate): inactive; negative

Structure (SMILES): O=[N+]([O-])c1cc2[nH]c3ccc4ccccc4c3c2c2ccc(O)cc12
- mutagenic call (Test System: AMES SALMONELLA TYPHIMURIUM, Strain/Indicator: TA98, Metabolic Activation: NONE, Method: STANDARD PLATE): inactive; negative
- mutagenic call (Test System: AMES SALMONELLA TYPHIMURIUM, Strain/Indicator: TA98, Metabolic Activation: RAT, LIVER, S-9, 3-METHYLCHOLANTHRENE, Method: STANDARD PLATE): active; positive
- mutagenic call (Test System: AMES SALMONELLA TYPHIMURIUM, Strain/Indicator: TA100, Metabolic Activation: NONE, Method: STANDARD PLATE): active; positive
- mutagenic call (Test System: AMES SALMONELLA TYPHIMURIUM, Strain/Indicator: TA100, Metabolic Activation: RAT, LIVER, S-9, 3-METHYLCHOLANTHRENE, Method: STANDARD PLATE): active; positive

Structure (SMILES): CS(=O)(=O)Nc1ccc([N+](=O)[O-])cc1Oc1ccccc1
- mutagenic call (End Point: IN VIVO CHROMOSOMAL ABERRATIONS, Test System: BONE MARROW CELLS, Species: MOUSE, Strain/Sex: SWISS/MALE, FEMALE, Route: GAVAGE (TEST MATERIAL SOLVENT: WATER)): active; positive (structural changes)

Structure (SMILES): Oc1ccccc1O
- mutagenic call (End Point: IN VITRO CHROMOSOMAL ABERRATIONS, Test System: CHINESE HAMSTER V79 CELLS, Metabolic Activation: NONE): active; positive at ph 7.4 and 8.0
- mutagenic call (End Point: IN VITRO MICRONUCLEUS, Test System: CHINESE HAMSTER LUNG (CHL)/IU CELLS, Metabolic Activation: NONE): active; positive
- mutagenic call (Test System: AMES SALMONELLA TYPHIMURIUM, Strain/Indicator: TA97, Metabolic Activation: NONE, Method: PREINCUBATION): inactive; negative
- mutagenic call (Test System: AMES SALMONELLA TYPHIMURIUM, Strain/Indicator: TA97, Metabolic Activation: RAT, LIVER, S-9, AROCLOR 1254, Method: PREINCUBATION): inactive; negative
- mutagenic call (Test System: AMES SALMONELLA TYPHIMURIUM, Strain/Indicator: TA97, Metabolic Activation: RAT, LIVER, S-9, PHENOBARBITAL, Method: PREINCUBATION): inactive; negative
- mutagenic call (Test System: AMES SALMONELLA TYPHIMURIUM, Strain/Indicator: TA98, Metabolic Activation: HAMSTER, LIVER, S-9, AROCLOR 1254, Method: PREINCUBATION): inactive; negative
- mutagenic call (Test System: AMES SALMONELLA TYPHIMURIUM, Strain/Indicator: TA98, Metabolic Activation: NONE): inactive; negative
- mutagenic call (Test System: AMES SALMONELLA TYPHIMURIUM, Strain/Indicator: TA98, Metabolic Activation: NONE, Method: PREINCUBATION): inactive; negative
- mutagenic call (Test System: AMES SALMONELLA TYPHIMURIUM, Strain/Indicator: TA98, Metabolic Activation: RAT, LIVER, S-9, AROCLOR 1254, Method: PREINCUBATION): inactive; negative
- mutagenic call (Test System: AMES SALMONELLA TYPHIMURIUM, Strain/Indicator: TA98, Metabolic Activation: RAT, LIVER, S-9, PHENOBARBITAL, Method: PREINCUBATION): inactive; negative
- mutagenic call (Test System: AMES SALMONELLA TYPHIMURIUM, Strain/Indicator: TA98, Metabolic Activation: S-9): inactive; negative
- mutagenic call (Test System: AMES SALMONELLA TYPHIMURIUM, Strain/Indicator: TA100, Metabolic Activation: HAMSTER, LIVER, S-9, AROCLOR 1254, Method: PREINCUBATION): inactive; negative
- mutagenic call (Test System: AMES SALMONELLA TYPHIMURIUM, Strain/Indicator: TA100, Metabolic Activation: NONE, Method: FLUCTUATION TEST): active; positive
- mutagenic call (Test System: AMES SALMONELLA TYPHIMURIUM, Strain/Indicator: TA100, Metabolic Activation: NONE, Method: PREINCUBATION): inactive; negative
- mutagenic call (Test System: AMES SALMONELLA TYPHIMURIUM, Strain/Indicator: TA100, Metabolic Activation: RAT, LIVER, S-9, AROCLOR 1254, Method: PREINCUBATION): inactive; negative
- mutagenic call (Test System: AMES SALMONELLA TYPHIMURIUM, Strain/Indicator: TA100, Metabolic Activation: RAT, LIVER, S-9, PCB, Method: FLUCTUATION TEST): active; positive
- mutagenic call (Test System: AMES SALMONELLA TYPHIMURIUM, Strain/Indicator: TA100, Metabolic Activation: RAT, LIVER, S-9, PHENOBARBITAL, Method: PREINCUBATION): inactive; negative
- mutagenic call (Test System: AMES SALMONELLA TYPHIMURIUM, Strain/Indicator: TA102, Metabolic Activation: NONE, Method: PREINCUBATION): inactive; negative
- mutagenic call (Test System: AMES SALMONELLA TYPHIMURIUM, Strain/Indicator: TA102, Metabolic Activation: RAT, LIVER, S-9, AROCLOR 1254, Method: PREINCUBATION): inactive; negative
- mutagenic call (Test System: AMES SALMONELLA TYPHIMURIUM, Strain/Indicator: TA104, Metabolic Activation: NONE, Method: PREINCUBATION): inactive; negative
- mutagenic call (Test System: AMES SALMONELLA TYPHIMURIUM, Strain/Indicator: TA104, Metabolic Activation: RAT, LIVER, S-9, AROCLOR 1254, Method: PREINCUBATION): inactive; negative
- mutagenic call (Test System: AMES SALMONELLA TYPHIMURIUM, Strain/Indicator: TA1535, Metabolic Activation: HAMSTER, LIVER, S-9, AROCLOR 1254, Method: PREINCUBATION): inactive; negative
- mutagenic call (Test System: AMES SALMONELLA TYPHIMURIUM, Strain/Indicator: TA1535, Metabolic Activation: NONE, Method: PREINCUBATION): inactive; negative
- mutagenic call (Test System: AMES SALMONELLA TYPHIMURIUM, Strain/Indicator: TA1535, Metabolic Activation: RAT, LIVER, S-9, AROCLOR 1254, Method: PREINCUBATION): inactive; negative
- mutagenic call (Test System: AMES SALMONELLA TYPHIMURIUM, Strain/Indicator: TA1537, Metabolic Activation: HAMSTER, LIVER, S-9, AROCLOR 1254, Method: PREINCUBATION): inactive; negative
- mutagenic call (Test System: AMES SALMONELLA TYPHIMURIUM, Strain/Indicator: TA1537, Metabolic Activation: NONE, Method: PREINCUBATION): inactive; negative
- mutagenic call (Test System: AMES SALMONELLA TYPHIMURIUM, Strain/Indicator: TA1537, Metabolic Activation: RAT, LIVER, S-9, AROCLOR 1254, Method: PREINCUBATION): inactive; negative
- mutagenic call (Test System: Ames Salmonella typhimurium, Strain/Indicator: TA98, Metabolic Activation: None, Method: Preincubation): inactive; negative
- mutagenic call (Test System: Ames Salmonella typhimurium, Strain/Indicator: TA98, Metabolic Activation: Rat, Liver, S9, Sodium phenobarbital and 5,6-benzoflavone, Method: Preincubation): inactive; negative
- mutagenic call (Test System: Ames Salmonella typhimurium, Strain/Indicator: TA100, Metabolic Activation: None, Method: Preincubation): inactive; negative
- mutagenic call (Test System: Ames Salmonella typhimurium, Strain/Indicator: TA100, Metabolic Activation: Rat, Liver, S9, Sodium phenobarbital and 5,6-benzoflavone, Method: Preincubation): inactive; negative
- mutagenic call (Test System: Ames Salmonella typhimurium, Strain/Indicator: TA1535, Metabolic Activation: None, Method: Preincubation): inactive; negative
- mutagenic call (Test System: Ames Salmonella typhimurium, Strain/Indicator: TA1535, Metabolic Activation: Rat, Liver, S9, Sodium phenobarbital and 5,6-benzoflavone, Method: Preincubation): inactive; negative
- mutagenic call (Test System: Ames Salmonella typhimurium, Strain/Indicator: TA1537, Metabolic Activation: None, Method: Preincubation): inactive; negative
- mutagenic call (Test System: Ames Salmonella typhimurium, Strain/Indicator: TA1537, Metabolic Activation: Rat, Liver, S9, Sodium phenobarbital and 5,6-benzoflavone, Method: Preincubation): inactive; negative
- mutagenic call (Test System: CHINESE HAMSTER V-79, Strain/Indicator: V-79/6-THIOGUANINE, Metabolic Activation: NONE): active; positive
- mutagenic call (Test System: E. coli, Strain/Indicator: WP2uvrA/pKM101, Metabolic Activation: None, Method: Preincubation): inactive; negative
- mutagenic call (Test System: E. coli, Strain/Indicator: WP2uvrA/pKM101, Metabolic Activation: Rat, Liver, S9, Sodium phenobarbital and 5,6-benzoflavone, Method: Preincubation): inactive; negative
- mutagenic call (Test System: E. coli, Strain/Indicator: Wp2uvrA/pKM101, Metabolic Activation: None, Method: Preincubation): inactive; negative
- mutagenic call (Test System: E. coli, Strain/Indicator: Wp2uvrA/pKM101, Metabolic Activation: Rat, Liver, S9, Sodium phenobarbital and 5,6-benzoflavone, Method: Preincubation): inactive; negative
- mutagenic call (Test System: MOUSE LYMPHOMA, Strain/Indicator: L5178Y (TK+/TK-), Metabolic Activation: NONE, Method: SUSPENSION/PLATE): active; positive
- mutagenic call (Test System: UDS SYRIAN HAMSTER EMBRYO (SHE) CELLS, Strain/Indicator: THY INCORP, Metabolic Activation: NONE, Method: LIQUID SCINTILLATION COUNTING): active; positive
